What was measured:
OA-HACs = assay: PGE2 EIA in OA-HAC culture supernatant; assay type: cell-based, human; settings: three individual OA-HAC donors, 100 nM peptide, 24 h (Figure 2F)
Experimental: Figure 2 Bioactivity of BMP7-derived peptides p[63−82] and p[113−132] on OA-HACs Complete peptide library screening quantitative real-time PCR dataset for peptides p[63−82] and p[113−132] is presented. (A) SOX9, COL2A1, and NKX3-2 mRNA expression in the 18 OA-HAC pool exposed to 1,000, 100, 10, or 1 nM of peptide p[63−82] and p[113−132] is shown and presented relative to control (black bars) and alongside full-length BMP7 (white bars). (B) Similar to (A) but for chondrocyte hypertrophy-associated genes RUNX2, COL10A1, and ALPL. (C) Similar to (A) but for cartilage extracellular matrix remodeling-associated genes MMP13 and ADAMTS5 and inflammation-related genes COX-2 and IL-6. […] (G) In the same OA-HAC pool of 18 OA-HAC donors from the peptide library screening, sequence dependency of peptides p[63−82] and p[113−132] was determined by exposing the OA-HAC pool to scrambled versions of peptides p[63−82] and p[113−132] […] Error bars represent mean ± SEM, and statistical significance for peptide conditions or BMP7 versus control condition as determined by unpaired two-tailed Student’s t test is represented as ∗p < 0.05, ∗∗p < 0.01, and ∗∗∗p < 0.001.
PGE2 levels were determined in the culture supernatant. PGE2 concentration was determined by a standardized enzyme immunoassay (EIA) according to the manufacturer’s protocol (Cayman Chemical).

[1] = test system: CAGA12 reporter (SMAD3 dependent) in SW1353 chondrocytic cells; assay: CAGA12 firefly luciferase reporter assay; assay type: cell-based; settings: 8 h peptide exposure, firefly normalized to Gaussia luciferase, relative to control (Figure 5B)
Experimental: Figure 5 Molecular characterization of peptides p[63−82] and p[113−132] (A) A pool of OA-HACs (n = 4 donors) was transfected with a scrambled siRNA or with an NKX3-2 siRNA (100 nM siRNA) and cultured for 24 h. Cultures were then exposed to peptide p[63−82] or p[113−132] (100 nM peptide). Samples were harvested 24 h later and analyzed for the expression of the indicated mRNAs (normalized to 28S rRNA). (B) SW1353 chondrocytic cells were transfected with BRE (SMAD1/5/8 reporter) or CAGA12 (SMAD2/3 reporter) firefly luciferase-reporter plasmids. A CMV-Gaussia plasmid was cotransfected as a transfection control. Cells were then cultured for 24 h and subsequently exposed to control, p[63−82], or p[113−132] for 8 h. Firefly and Gaussia bioluminescence were measured in cells and medium (respectively), and relative light units (RLUs) of firefly luciferase were normalized for the Gaussia luciferase signal. The normalized firefly luciferase signal of the control condition was set at 1, and peptide conditions were calculated relative to the control condition (FL/GL). Error bars represent mean ± SEM; statistical significance for peptide conditions versus siScrambled or siNKX3-2 (A) or control condition (B) as determined by unpaired two-tailed Student’s t test is represented as ∗p < 0.05, ∗∗p < 0.01, and ∗∗∗p < 0.001. […]

Question: What does the source list for H-AAYYSEGESAFPLNSYMNAT-OH [p[63−82]]?
Answer: prostaglandin E2 (PGE2) levels in culture supernatant (OA-HACs): significant decrease; CAGA12-reporter activity [1]: diminished

Question: H-SVLYFDDSSNVILKKYRNMV-OH [p[113−132]] was tested. Which “prostaglandin E2 (PGE2) levels in culture supernatant” value (OA-HACs) did it give?
Answer: Its value is “significant decrease”.

Question: And the CAGA12-reporter activity [1]?
Answer: The CAGA12-reporter activity was “diminished”.
